Values joined by “and” are separate entries in the source; they are usually repeats but may differ in a detail not shown here. Equal entries are not always repeated. Where two headings read alike, the source gives them in different places. Where only a bound is given, the exact number is not on record here.

Series [1] is classed as physicochemical.
A further series relates to Staphylococcus aureus. It is filed as cell-based.

Consider sodium alkylethersulfate, for which the hydrogen peroxide concentration in series [1] (T0) was 7.6%; in series [1] (T = 15 min) it was 7.6%; in series [1] (T = 24 h), 7.3% and 7.6%; in series [1] (T = 72 h), 6.9% and 7.6%.
As to `OO` [H2O2, hydrogen peroxide], in the series on Staphylococcus aureus, the “activity along EN 13727 (Active/Inefficient)” value is recorded as “Active” and the “activity along EN 13727, log reduction” value is given as greater than 5 log.
For the molecule “sodium alkylsulfate [Sodium alkyl (dodecyl) sulfate]”, the hydrogen peroxide concentration was 7.6% in series [1] (T0); 7.6% in series [1] (T = 15 min); 7.6% in series [1] (T = 24 h); 7.4% and 7.6% in series [1] (T = 72 h).
As to `O=S(=O)([O-])[O-].[Cu+2]` [CuSO4, copper sulfate], in the series on Staphylococcus aureus, the “activity along EN 13727 (Active/Inefficient)” value is recorded as “Inefficient”.

These data come from patent publication US20110117209A1 (priority 2008, published 2011).
